In patent US8410049B2, “Methods and kits for preventing hypoglycemia” (Cebix, priority 2009, dated 2013):

Columns and labels:
[1] = subcutaneously administered; cited from earlier work
[2] = test system: type 1 diabetes patients with peripheral neuropathy; details: in vivo

## CC(C)C[C@H](NC(=O)[C@H](C)NC(=O)[C@H](CC(C)C)NC(=O)[C@@H]1CCCN1C(=O)[C@H](CCC(N)=O)NC(=O)[C@H](CC(C)C)NC(=O)[C@H](CO)NC(=O)CNC(=O)[C@H](C)NC(=O)CNC(=O)[C@@H]1CCCN1C(=O)CNC(=O)CNC(=O)CNC(=O)[C@H](CC(C)C)NC(=O)[C@H](CCC(=O)O)NC(=O)[C@@H](NC(=O)[C@H](CCC(N)=O)NC(=O)CNC(=O)[C@@H](NC(=O)[C@H](CCC(N)=O)NC(=O)[C@H](CC(C)C)NC(=O)[C@H](CC(=O)O)NC(=O)[C@H](CCC(=O)O)NC(=O)[C@H](C)NC(=O)[C@@H](N)CCC(=O)O)C(C)C)C(C)C)C(=O)N[C@@H](CCC(=O)O)C(=O)NCC(=O)N[C@@H](CO)C(=O)N[C@@H](CC(C)C)C(=O)N[C@@H](CCC(N)=O)C(=O)O [C-peptide, Recombinant human C-peptide]
[1]
  Bioavailability: approximately 80%
[2]
  AEs of any severity: Abdominal pain: 3
  AEs of any severity: Allergic urticaria: 1
  AEs of any severity: Anemia: 1
  AEs of any severity: Aptyalism: 1
  AEs of any severity: Arterial disorder: 1
  AEs of any severity: Arthralgia: 3
  AEs of any severity: Arthritis: 1
  AEs of any severity: Asthma: 1
  AEs of any severity: Back pain: 2
  AEs of any severity: Blister: 2
  AEs of any severity: Bronchitis: 1
  AEs of any severity: Burning sensation: 1
  AEs of any severity: Candidiasis: 2
  AEs of any severity: Cardiac arrhythmia: 1
  AEs of any severity: Cardiac murmur: 1
  AEs of any severity: Carpal tunnel syndrome: 1
  AEs of any severity: Celiac disease: 1
  AEs of any severity: Chest pain: 2
  AEs of any severity: Cough: 1
  AEs of any severity: Dacryocanaliculitis: 1
  AEs of any severity: Depression: 1
  AEs of any severity: Dermatitis allergic: 1
  AEs of any severity: Dry skin: 1
  AEs of any severity: Epicondylitis: 1
  AEs of any severity: Epistaxis: 1
  AEs of any severity: Exostosis: 2
  AEs of any severity: Eye injury: 1
  AEs of any severity: Eye operation: 1
  AEs of any severity: Fatigue: 2
  AEs of any severity: Feeling abnormal: 3
  AEs of any severity: Fibroma: 1
  AEs of any severity: Flatulence: 1
  AEs of any severity: Food poisoning: 1
  AEs of any severity: Gastritis: 1
  AEs of any severity: Hematuria: 1
  AEs of any severity: Hemorrhage: 1
  AEs of any severity: Hepatic enzyme increase: 2
  AEs of any severity: Hyperaesthesia: 1 (1)
  AEs of any severity: Hypercalcemia: 1
  AEs of any severity: Hyperlipidemia: 1
  AEs of any severity: Hypertension: 1
  AEs of any severity: Hyperthermeasthesia: 2 (2)
  AEs of any severity: Hypoaesthesia: 2
  AEs of any severity: Hypoglycemic coma: 2
  AEs of any severity: Hypotension: 1
  AEs of any severity: Injection site burning: 1 (1)
  AEs of any severity: Joint sprain ankle: 1
  AEs of any severity: Knee injury: 1
  AEs of any severity: Leucopenia: 1
  AEs of any severity: Limb operation: 1
  AEs of any severity: Lymph node enlargement: 1
  AEs of any severity: Macular edema: 1
  AEs of any severity: Menopausal disorder: 1
  AEs of any severity: Menstration irregular: 1
  AEs of any severity: Migraine: 1
  AEs of any severity: Multiple sclerosis: 1
  AEs of any severity: Muscle cramp: 1
  AEs of any severity: Muscle spasm: 1
  AEs of any severity: Muscular atrophy: 1
  AEs of any severity: Musculoskeletal chest: 1
  AEs of any severity: Nasopharyngitis: 23
  AEs of any severity: Otitis: 2
  AEs of any severity: Pain in neck: 1
  AEs of any severity: Pain in shoulder: 1
  AEs of any severity: Panic disorder: 1
  AEs of any severity: Pharyngitis: 2
  AEs of any severity: Pregnancy: 2
  AEs of any severity: Pyrexia: 3
  AEs of any severity: Reflux gastritis: 2
  AEs of any severity: Restless legs syndrome: 1
  AEs of any severity: Rheumarthritis: 1
  AEs of any severity: Rib fracture/injury: 2
  AEs of any severity: ST elevation (ECG): 1
  AEs of any severity: Scar: 1
  AEs of any severity: Sciatica: 1
  AEs of any severity: Season allergy: 1
  AEs of any severity: Sensory loss: 1
  AEs of any severity: Sepsis: 1
  AEs of any severity: Sinusitis: 2
  AEs of any severity: Skin infection: 1
  AEs of any severity: Stress disorder: 1
  AEs of any severity: Sweating increased: 1
  AEs of any severity: Synovial disorder: 1
  AEs of any severity: Tachycardia (stress): 1
  AEs of any severity: Tendinitis: 1
  AEs of any severity: Tendinous contracture: 1
  AEs of any severity: Tendosynovitis stenosans: 1
  AEs of any severity: Tonsilitis: 2
  AEs of any severity: Tooth extraction: 1
  AEs of any severity: Tooth infection: 2
  AEs of any severity: Tooth injury: 1
  AEs of any severity: Torticollis: 1
  AEs of any severity: Upper respiratory tract infection: 1
  AEs of any severity: Vertigo: 1
  AEs of any severity: Vision decreased: 1
  AEs of any severity: Vitamin B12 deficiency: 1
  AEs of any severity: Vitreous hemorrhage: 1
  AEs of moderate intensity (M): Abdomnial pain: M (1)
  AEs of moderate intensity (M): Arthralgia: M (1)
  AEs of moderate intensity (M): Arthritis: M (1)
  AEs of moderate intensity (M): Arthropathy: M (1)
  AEs of moderate intensity (M): Back pain: M (1)
  AEs of moderate intensity (M): Bronchitis: M (1)
  AEs of moderate intensity (M): Carpal tunnel syndrome: M (1)
  AEs of moderate intensity (M): Celiac disease: M (1)
  AEs of moderate intensity (M): Dacryocanaliculitis: M (1)
  AEs of moderate intensity (M): Depression: M (1)
  AEs of moderate intensity (M): Dizziness: M (1)
  AEs of moderate intensity (M): Epicondylitis: M (1)
  AEs of moderate intensity (M): Fatigue: M (1)
  AEs of moderate intensity (M): Feeling abnormal: M (3)
  AEs of moderate intensity (M): Gastritis: M (1)
  AEs of moderate intensity (M): Gastroenteritis: M (3)
  AEs of moderate intensity (M): Hyperlipidemia: M (1)
  AEs of moderate intensity (M): Hypoglycemic coma: M (1)
  AEs of moderate intensity (M): Hypotension: M (1)
  AEs of moderate intensity (M): Knee injury: M (1)
  AEs of moderate intensity (M): Limb operation: M (1)
  AEs of moderate intensity (M): Migraine: M (1)
  AEs of moderate intensity (M): Muscle cramp: M (1)
  AEs of moderate intensity (M): Myalgia: M (2)
  AEs of moderate intensity (M): Nausea: M (1)
  AEs of moderate intensity (M): Otitis: M (1)
  AEs of moderate intensity (M): Pain in extremity: M (2)
  AEs of moderate intensity (M): Paraesthesia: M (1)
  AEs of moderate intensity (M): Pharyngitis: M (1)
  AEs of moderate intensity (M): Pyrexia: M (1)
  AEs of moderate intensity (M): Restless legs syndrome: M (1)
  AEs of moderate intensity (M): Rib fracture/injury: M (1); S (1)
  AEs of moderate intensity (M): ST elevation (ECG): M (1)
  AEs of moderate intensity (M): Sciatica: M (1)
  AEs of moderate intensity (M): Stress disorder: M (1)
  AEs of moderate intensity (M): Tendinous: M (1)
  AEs of moderate intensity (M): Tonsillitis: M (1)
  AEs of moderate intensity (M): Vision decreased: M (1)
  AEs of moderate intensity (M): Vitreous hemorrhage: M (1)
  AEs of severe intensity (S): Diarrhea: S (1)
  AEs of severe intensity (S): Hepatic enzyme increase: S (1)
  AEs of severe intensity (S): Hyperglycemia: S (1)
  AEs of severe intensity (S): Hypoglycemia: M (1); S (1)
  AEs of severe intensity (S): Hypoglycemic coma: S (2)
  AEs of severe intensity (S): Pharyngitis: S (1)
  AEs of severe intensity (S): Pregnancy: S (1)
  AEs of severe intensity (S): Rib fracture/injury: M (1); S (1)
  AEs possibly related to study drug: Hepatic enzyme increase: 1
  AEs possibly related to study drug: Hyperaesthesia: 1 (1)
  AEs possibly related to study drug: Hyperglycemia: 1 (1)
  AEs possibly related to study drug: Hyperthermeasthesia: 2 (2)
  AEs possibly related to study drug: Hypoglycemia: 1
  AEs possibly related to study drug: Injection site burning: 1 (1)
  AEs possibly related to study drug: Pain in extremity: 1
  Adverse drug reactions or significant changes in safety variables: no adverse drug reactions
  Number of AEs probably/possibly related to study drug: Hyperglycemia: 1 (1)
  Number of AEs probably/possibly related to study drug: Hypoglycemia: 1
  Number of AEs: Blood glucose fluctuation: 0
  Number of AEs: Hypoglycemic coma: 2
  Number of AEs: Hypothyroidism: 0
  Number of AEs: Increased appetite: 0
  Occurrences of hypoglycemic coma: 4
  Serious adverse events (SAEs): Two SAEs
  Tolerability: well tolerated
[2]; sc
  Local reactions: No local reactions
